Measured values from paper PMC4536990, “Efficacy of the antimicrobial peptide TP4 against Helicobacter pylori infection: in vitro membrane perturbation via micellization and in vivo suppression of host immune responses in a mouse model” (Oncotarget, 2015).
Where a SMILES comes first, the peptide text is derived from it.

Columns and labels:
[1] = cited from earlier work
Excerpt: (§1) A more complete understanding of how these short amphipathic cationic AMPs bring about bacterial cell death and host immunomodulation is needed for further optimization and development for clinical applications.

[2] = tested on: human and mouse cell lines; conditions: cited from earlier work
Excerpt: as §1

H. pylori [3] = type: cell-based, Helicobacter pylori; conditions: 24 h
Procedure: Frozen cultures were streaked onto BHI agar with 10% sheep blood, and incubated for 24 hr under microaerophilic conditions. H. pylori cells undergoing exponential growth were suspended in sterile phosphate-buffered saline (PBS), and adjusted to 0.05 OD using BHI broth; the resulting inoculum was dispensed onto a microtitre plate. Peptide TP4 was prepared at various concentrations (0.04 to 50 μg mL^−1) using PBS. Antibiotic resistant clinical isolate CI-HC-028 and three reference strains were used for susceptibility testing. All plates were incubated under microaerophilic conditions at 37°C overnight. The MIC was defined as the lowest concentration of the drug at which there was no visible growth. For quality control and comparative analyses, we examined the susceptibility of all four H. pylori strains to the antibiotics amoxicillin, clarithromycin, and metronidazole (Sigma Chemical Co., St. Louis, MO).

C3H/HeN mice [4] = test: Sub-acute oral toxicity; type: in vivo; conditions: three-fold therapeutic dose (600 μg dose/day) orally for 14 days, observed days 1 to 28, n=6
Procedure: Sub-acute oral toxicity: Three-fold therapeutic doses were orally administered to mice for 14 days.
Oral toxicity: Acute oral toxicity was assessed in C3H/HeN mice with 6 animals per group, by single oral administration of TP4 (125 mg/kg). After dose administration, the animals were kept under observation for a minimum of 48 hr. The mortality rate and clinical signs were recorded. Sub-acute oral toxicity was assessed by administering 600 μg dose/day for 14 days. During dose administration, the animals were observed every day for any signs of toxicity. After the treatment period, the animals were kept under observation for 14 days. The morbidity, mortality, and other clinical signs were recorded and assessed. Dermal Toxicity was assessed by topical application of TP4 at 10 times the effective dose to skin at the dorsal side of mice. After administration, the animals were kept under observation for a minimum of 48 h. Clinical signs were noted if the animals were in the morbid stage or presented with any abnormalities. Eye irritation test in New Zealand white rabbits: Healthy young adult rabbits were used in the experiment. Eyes were treated with TP4, PBS (vehicle control), or 0.1% SDS (positive control). […] Clinical signs were recorded during the test period, and grades were assigned for ocular reactions observed during each examination. […]

C3H/HeN mice [5] = test: Acute oral toxicity; type: in vivo; conditions: single oral dose 125 mg/kg, n=6, observed 24 hours
Procedure: Oral toxicity: Acute oral toxicity was assessed in C3H/HeN mice with 6 animals per group, by single oral administration of TP4 (125 mg/kg). […] The mortality rate and clinical signs were recorded. Sub-acute oral toxicity was assessed by administering 600 μg dose/day for 14 days. During dose administration, the animals were observed every day for any signs of toxicity. After the treatment period, the animals were kept under observation for 14 days. The morbidity, mortality, and other clinical signs were recorded and assessed. Dermal Toxicity was assessed by topical application of TP4 at 10 times the effective dose to skin at the dorsal side of mice. After administration, the animals were kept under observation for a minimum of 48 h. Clinical signs were noted if the animals were in the morbid stage or presented with any abnormalities. Eye irritation test in New Zealand white rabbits: Healthy young adult rabbits were used in the experiment. Eyes were treated with TP4, PBS (vehicle control), or 0.1% SDS (positive control). A repeated dose of 1 mg/kg was administered every day for 7 days. During the treatment period, the eyes were examined on days 1, 3, 5, and 7, and allowed to recover until day 14. Clinical signs were recorded during the test period, and grades were assigned for ocular reactions observed during each examination. […]

[6] = tested on: New Zealand white rabbits; test: Eye irritation test in rabbits (OECD 405); type: in vivo; conditions: for Abnormality iris grade / Chemosis grade / Conjunctivae Redness grade / Corneal opacity grade: OECD 405 grading
Procedure: (§2) Figure 11 TP4 toxicity safety evaluations in New Zealand albino rabbits and C3H/HeN mice (A) Eye irritation test: Ocular appearances of controls, and rabbits treated with TP4 or SDS for 7 days. […] (B) Dermal toxicity: appearances of the skin of mice treated with TP4 at 48 hr post-exposure.
(§3) Oral toxicity: Acute oral toxicity was assessed in C3H/HeN mice with 6 animals per group, by single oral administration of TP4 (125 mg/kg). After dose administration, the animals were kept under observation for a minimum of 48 hr. The mortality rate and clinical signs were recorded. Sub-acute oral toxicity was assessed by administering 600 μg dose/day for 14 days. During dose administration, the animals were observed every day for any signs of toxicity. After the treatment period, the animals were kept under observation for 14 days. The morbidity, mortality, and other clinical signs were recorded and assessed. Dermal Toxicity was assessed by topical application of TP4 at 10 times the effective dose to skin at the dorsal side of mice. After administration, the animals were kept under observation for a minimum of 48 h. Clinical signs were noted if the animals were in the morbid stage or presented with any abnormalities. Eye irritation test in New Zealand white rabbits: Healthy young adult rabbits were used in the experiment. Eyes were treated with TP4, PBS (vehicle control), or 0.1% SDS (positive control). A repeated dose of 1 mg/kg was administered every day for 7 days. During the treatment period, the eyes were examined on days 1, 3, 5, and 7, and allowed to recover until day 14. Clinical signs were recorded during the test period, and grades were assigned for ocular reactions observed during each examination. All procedures, care, and handling of rabbits were approved by the laboratory animal ethics committee of National Taiwan Ocean University.

C3H/HeN mice [7] = test: Dermal toxicity; type: in vivo
Procedure: as §2, §3

H. pylori CI-HC-028 = test: Time-dependent killing of multidrug resistant clinical isolate; type: cell-based, Helicobacter pylori; conditions: CI-HC-028, at MIC
Procedure: Control peptide and H. pylori alone were used as controls. The cultures were monitored for 24 h, and aliquots were taken at 1, 3, 6, 12, and 24 h for bacterial enumeration. The data are means ± SEM. […] Approximately, 1 × 10^5 cells were incubated for 1 h, and then incubated with the MIC of TP4, amoxicillin, metronidazole, or clarithromycin (AMOX, METZ, and CLRN, respectively). The cultures were monitored for 24 h, and aliquots taken at 1, 3, 6, 12, and 24 h to determine surviving c.f.u. The data are means ± SEM
Overnight cultures of H. pylori were scraped and adjusted to OD 0.05, and 1 ml/tube inocula were prepared with BHI broth. Solutions of TP4 or clinical antibiotics were prepared with concentrations corresponding to their respective MIC, and PBS was used as a control. The tubes were incubated without shaking at 37°C under microaerophilic conditions, and sample aliquots were taken at 0, 1, 3, 6, 12, and 24 hr. The samples were serially diluted, and appropriate dilutions were plated in triplicate onto blood agar plates for bacterial counts. The results were expressed as mean log (c.f.u. mL^−1) with standard error.

H. pylori [8] = test: Transmission electron microscopy of H. pylori morphology; type: cell-based, Helicobacter pylori; conditions: 1x MIC, 2 hr
Excerpt: Figure 4 Electron micrographs reveal that TP4 causes membrane disruption in H. pylori via micellization Approximately 6 × 10^7 H. pylori cells were exposed to PBS (A, D), 1x MIC amoxicillin (B, E), or 1x MIC TP4 peptide (C, F) for 2 hr. Next, thin sections were examined under a transmission electron microscope (TEM) at low (1,100X; A-C) or high (5,500X; D-F) magnification. […] (E) Amoxicillin-treated cells retained intact membranes, but the periplasmic space was swollen in some locations.
Transmission electron microscopy (TEM) was used to examine the mechanism of TP4 action on H. pylori, overall cell morphology, TP4 translocation into H. pylori, and binding of TP4 to internal constituents. H. pylori overnight cultures from BHI-blood agar plates were collected, and 0.1 OD inocula were incubated with TP4, Amoxicillin, and/or PBS (PBS only: negative control). Following drug exposure, H. pylori cells were collected and successively washed twice in PBS by centrifugation and resuspension. The cells were then fixed and processed for TEM using previously described methods. […] Each grid was examined under the same settings. Images were recorded with a 4MP SPOT Insight charge-coupled-device (CCD) camera.

[9] = tested on: metronidazole- and clarithromycin-resistant H. pylori strains; test: Synergy of TP4 with antibiotics, in vitro dose-OD fall kinetics; type: cell-based, Helicobacter pylori; conditions: TP4 plus antibiotic
Procedure: (§4) Animals were sacrificed at each passage, and the MIC of TP4, amoxicillin, metronidazole, and clarithromycin were recorded for 10 serial passages. Passage points in the curves are means ± SEM. (MICs: standard MIC value; MICp: passage-induced MIC). (B) In vitro dose-OD fall kinetics were examined for TP4 alone and in combination with amoxicillin, metronidazole, or clarithromycin. […] The data shown are means ± SEM of two independent experiments
Combination therapy often enhances antibiotic efficacy and mitigates the frequency at which drug resistance emerges. To determine the suitability of TP4 for combination therapy, we examined in vitro dose-OD fall kinetics of TP4 in combination with AMOX, CLRN, or METZ antibiotics; these three antibiotics are traditionally used as the first line of defense against H. pylori.

H. pylori [10] = test: Induction of drug resistance by sub-inhibitory passaging (in vitro / in vivo passage); type: cell-based, Helicobacter pylori; conditions: sub-inhibitory doses, 10 serial passages
Procedure: as §4
The drug resistance of bacteria to TP4 and clinical antibiotics was determined by in vitro culturing of H. pylori in sub-inhibitory concentrations of TP4 and antibiotics, followed by repeated in vivo passaging. H. pylori was administered to C3H/HeN mice and allowed to colonize the gut; subsequently pure colonies of H. pylori were isolated on EYE selective media. This step was repeated for 10 passages. During each passage, the MICs of TP4 and the conventional antibiotics were determined. All procedures, care, and handling of mice were approved by the laboratory animal ethics committee of National Taiwan Ocean University.

H. pylori outer membrane = test: NPN uptake membrane perturbation assay; type: cell-based, Helicobacter pylori; conditions: 6 h incubation, 22μg mL−1 NPN
Procedure: Figure 3 TP4 induces membrane permeation of H. pylori TP4 rapidly permeabilizes the H. pylori outer membrane in a dose-dependent manner. Membrane permeabilization was examined by measuring fluorescence due to uptake of 1-N-phenyl-naphthylamine (NPN). Approximately 5 × 10^6 H. pylori (Hp) cells were cultured in the presence of TP4 or amoxicillin for 6 h. Bacterial cells alone, or cells incubated with NPN and control peptide, were used as negative controls. NPN fluorescence intensity was recorded as a correlate of membrane permeation. (B) Zeta-potential (ζ) of H. pylori in the presence/absence of TP4. Striped bars: H. pylori grown in blood agar plates; white bar: liquid culture. The data shown are means ± SEM of two independent experiments
The NPN membrane permeation assay was performed as described previously. Briefly, a starter culture of H. pylori was grown overnight to 0.05 OD. The adjusted culture was aliquoted into different tubes with or without TP4/amoxicillin, and incubated at 37°C for 360 minutes under microaerophilic conditions. […] NPN fluorescence intensity was recorded using a Synergy HT (BioTek, U.S.A) fluorescence ELISA reader, and correlated to membrane potential and permeation. Experiments were performed in triplicate, and the results are expressed as means with standard error.

In the case of `CC[C@H](C)[C@H](NC(=O)[C@H](C)NC(=O)[C@H](CCCCN)NC(=O)CNC(=O)[C@H](C)NC(=O)[C@H](CO)NC(=O)[C@H](Cc1ccccc1)NC(=O)[C@H](CC(C)C)NC(=O)CNC(=O)CNC(=O)[C@@H](NC(=O)[C@@H](NC(=O)[C@H](Cc1c[nH]cn1)NC(=O)[C@H](Cc1c[nH]cn1)NC(=O)[C@@H](NC(=O)[C@@H](N)Cc1ccccc1)[C@@H](C)CC)[C@@H](C)CC)[C@@H](C)CC)C(=O)N[C@@H](Cc1c[nH]cn1)C(=O)N[C@@H](CCCNC(=N)N)C(=O)N[C@@H](CC(C)C)C(=O)N[C@H](C(=O)N[C@@H](CCCNC(=N)N)C(=O)N[C@@H](CCCNC(=N)N)C(=O)N[C@@H](CCCNC(=N)N)C(=O)N[C@@H](CCCNC(=N)N)C(=O)N[C@@H](CCCNC(=N)N)C(N)=O)[C@@H](C)CC` [TP4] (H-FIHHIIGGLFSAGKAIHRLIRRRRR-NH2), the hemolytic activity [1] is given as “low hemolytic activity”, the “toxicity against cell lines” value [2] is given as “low toxicity against human and mouse cell lines” and the MIC (H. pylori [3]) is given as 1.5 to 3 µg/mL. For the same compound, the “sub-acute oral toxicity, clinical signs” value (C3H/HeN mice [4]) was “did not induce clinical complications in mice”, the “acute oral toxicity, clinical signs and vital organs” value (C3H/HeN mice [5]) was “did not exhibit any abnormal clinical signs” and the Abnormality iris grade ([6]; Day 1) was 0. The Chemosis grade ([6]; Day 1) was 0, the “Conjunctivae Redness grade” value ([6]; Day 1) was 0 and the Corneal opacity grade ([6]; Day 1, rabbit eye, daily for 7 days (TP4 1 mg/kg; SDS 0.1%)) was 0. The Abnormality iris grade ([6]; Day 3) was 0, the Chemosis grade ([6]; Day 3) was 0.1 and the “Conjunctivae Redness grade” value ([6]; Day 3) was 0. The Corneal opacity grade ([6]; Day 3) was 0, the Abnormality iris grade ([6]; Day 5) was 0 and the Chemosis grade ([6]; Day 5) was 0.1. The “Conjunctivae Redness grade” value ([6]; Day 5) was 0.5, the Corneal opacity grade ([6]; Day 5) was 0.1 and the Abnormality iris grade ([6]; Day 7) was 0. The Chemosis grade ([6]; Day 7) was 0.1, the “Conjunctivae Redness grade” value ([6]; Day 7) was 0 and the Corneal opacity grade ([6]; Day 7) was 0.3. For the same compound, the Abnormality iris grade ([6]; Recovery, Day 14) was 0, the Chemosis grade ([6]; Recovery, Day 14) was 0 and the “Conjunctivae Redness grade” value ([6]; Recovery, Day 14) was 0. For the same compound, the Corneal opacity grade ([6]; Recovery, Day 14) was 0, the ocular appearance ([6]; rabbits treated for 7 days, observed daily) was “no ocular lesions were detected” and the “skin appearance, lesions” value (C3H/HeN mice [7]; 48 hr post-exposure, after residue removal, 125 mg/kg TP4 or 20% SDS, n=12 per group) was “No obvious lesions”. For the same compound, the “dermal toxicity, mortality or damaging effects” value (C3H/HeN mice [7]; topical, 10 times the effective dose, 14-day observation) was “did not result in mortality or damaging effects”.

In the case of `CC1(C)S[C@@H]2[C@H](NC(=O)[C@H](N)c3ccc(O)cc3)C(=O)N2[C@H]1C(=O)O` [amoxicillin], the “killing within 24 hr” value (H. pylori CI-HC-028) was 90%, the “membrane morphology by TEM” value (H. pylori [8]) was “loose outer membranes” and the “reduction of the MIC of the antibiotic in combination with TP4” value [9] was “one-fourth”. The “drug resistance index MICp/MICs” value (H. pylori [10]) was “increased slightly after passage 6, and remained constant thereafter” and the “NPN fluorescence intensity (membrane permeabilization)” value (H. pylori outer membrane) was “slight increase in fluorescence intensity at higher doses”.
